The record followed here is patent US20210252011A1, “TREATMENT OF GLIOBLASTOMA WITH FASN INHIBITORS” (FORMA Therapeutics, Inc., priority 2017, published 2021).

The structures appear in SMILES notation. Where only a bound is given, the exact number is not on record here.

Data set [1] in a line: Determination of brain exposure in Balb/c nude mice following oral administration. The conditions noted are these: 5 mg/kg oral gavage; for Brain (μM) at 2 h / Plasma (μM) at 2 h / [Brain]/[Plasma] at 2 h: 2 h post dose; for Brain (μM) at 8 h / Plasma (μM) at 8 h / [Brain]/[Plasma] at 8 h: 8 h post dose; for Brain (μM) at 2, 8 h (single value) / Plasma (μM) at 2, 8 h (single value) / Kp: one value given, time point (2 or 8 h) not stated; for Kp: mouse, brain/plasma, read-out: [Brain]/[Plasma] at 2, 8 h (single value). In kind it is in vivo. As to the method:
Balb/c nude mice (body weight: 20-30 g; age range: approximately 6-8 weeks) were purchased from a qualified provider and acclimated for 5-7 days. The dosing formulation (dose: 5 mg/kg; concentration: 0.5 mg/mL; vehicle: PEG400:ethanol (v/v 9:1)) was prepared on the day of dosing and administered via oral gavage (dose volume: 10 mL/kg) to the mice (n=3 animals per time point). At the desired time point (2 or 8 h post dose) approximately 0.03 mL of blood sample was collected via venipuncture of peripheral veins into Heparin Na tubes and immediately placed on ice. After gently reverting the tube for approximately 10 seconds, the blood sample was centrifuged at 4,000×g for 5 minutes at 4° C. Supernatant was transferred into a micro-centrifuge tube and kept in a −80° C. freezer. Prior to brain collection, mice were fully exsanguinated via the following procedure: the chest cavity was opened, the ventricle was cut and a gentle iv saline flush (saline flush volume ˜20 mL) was performed with the animal placed head down at a 45 degree angle to facilitate blood removal. Brain samples were collected at the desired time point (2 or 8 h post dose), quick frozen in an ice box, and kept at −75±15° C. All brain samples were weighed and homogenated with buffer (brain weight (g) to PBS volume (mL) ratio of 1:4) before analysis. The actual concentration is the detected value multiplied by the dilution factor. For plasma sample analysis, plasma samples were quantified against a standard curve in plasma of Balb/c nude mice using an LC-MS/MS Method. For brain sample analysis, brain samples were quantified against a standard curve in brain homogenate of Balb/c nude mice using an LC-MS/MS Method. Each standard curve covered at least 6 calibration points including lower limit of quantification (LLOQ).

The target of a further data set is T1, FASN enzyme (Homo sapiens, UniProt P49327).
T1 construct: incubated with 10 μL of 40 nM FASN enzyme in assay buffer
Kind of data set: Enzymatic assay for FASN inhibitors. The format is biochemical. The conditions noted are these: 40 nM FASN enzyme, 25° C. As to the method: Assays were performed in a 384-well black plate to measure the inhibition of FASN activity by individual compounds disclosed herein. An aliquot of 250 nL of compound was incubated with 10 μL of 40 nM FASN enzyme in assay buffer (50 mM HEPES (pH=7.3), 0.5 mM EDTA, 1 mM ascorbate, 100 mM sodium chloride and 0.04% TritonX-100) in each well at 25° C. for 60 minutes. After the plate was centrifuged briefly, 10 μL of substrate mix (20 μM acetyl-CoA, 60 μM malonyl-CoA, and 100 μM NADPH in assay buffer) was added to each well. The reaction was maintained at 25° C. for 90 minutes. The reaction was then quenched by adding 10 μL of 90 μM 7-diethylamino-3-(4′-maleimidylpheynyl)-4-methylcoumarin in 50/50 ethanol/water solution. The assay plate was incubated at 25° C. for 15 minutes and read on a plate reader with excitation and emission wavelengths at 360 nm and 530 nm, respectively. The IC50 of a given compound was calculated by fitting the dose response curve with a four-parameter logistic equation. Data shown below in Table B, where compounds having an activity designated as “A” provided an IC50<100 nm and compounds having an activity designated as “B” provided an IC50 of 100 nm-1.00 μM.

T1 sequence (P49327 whole entry): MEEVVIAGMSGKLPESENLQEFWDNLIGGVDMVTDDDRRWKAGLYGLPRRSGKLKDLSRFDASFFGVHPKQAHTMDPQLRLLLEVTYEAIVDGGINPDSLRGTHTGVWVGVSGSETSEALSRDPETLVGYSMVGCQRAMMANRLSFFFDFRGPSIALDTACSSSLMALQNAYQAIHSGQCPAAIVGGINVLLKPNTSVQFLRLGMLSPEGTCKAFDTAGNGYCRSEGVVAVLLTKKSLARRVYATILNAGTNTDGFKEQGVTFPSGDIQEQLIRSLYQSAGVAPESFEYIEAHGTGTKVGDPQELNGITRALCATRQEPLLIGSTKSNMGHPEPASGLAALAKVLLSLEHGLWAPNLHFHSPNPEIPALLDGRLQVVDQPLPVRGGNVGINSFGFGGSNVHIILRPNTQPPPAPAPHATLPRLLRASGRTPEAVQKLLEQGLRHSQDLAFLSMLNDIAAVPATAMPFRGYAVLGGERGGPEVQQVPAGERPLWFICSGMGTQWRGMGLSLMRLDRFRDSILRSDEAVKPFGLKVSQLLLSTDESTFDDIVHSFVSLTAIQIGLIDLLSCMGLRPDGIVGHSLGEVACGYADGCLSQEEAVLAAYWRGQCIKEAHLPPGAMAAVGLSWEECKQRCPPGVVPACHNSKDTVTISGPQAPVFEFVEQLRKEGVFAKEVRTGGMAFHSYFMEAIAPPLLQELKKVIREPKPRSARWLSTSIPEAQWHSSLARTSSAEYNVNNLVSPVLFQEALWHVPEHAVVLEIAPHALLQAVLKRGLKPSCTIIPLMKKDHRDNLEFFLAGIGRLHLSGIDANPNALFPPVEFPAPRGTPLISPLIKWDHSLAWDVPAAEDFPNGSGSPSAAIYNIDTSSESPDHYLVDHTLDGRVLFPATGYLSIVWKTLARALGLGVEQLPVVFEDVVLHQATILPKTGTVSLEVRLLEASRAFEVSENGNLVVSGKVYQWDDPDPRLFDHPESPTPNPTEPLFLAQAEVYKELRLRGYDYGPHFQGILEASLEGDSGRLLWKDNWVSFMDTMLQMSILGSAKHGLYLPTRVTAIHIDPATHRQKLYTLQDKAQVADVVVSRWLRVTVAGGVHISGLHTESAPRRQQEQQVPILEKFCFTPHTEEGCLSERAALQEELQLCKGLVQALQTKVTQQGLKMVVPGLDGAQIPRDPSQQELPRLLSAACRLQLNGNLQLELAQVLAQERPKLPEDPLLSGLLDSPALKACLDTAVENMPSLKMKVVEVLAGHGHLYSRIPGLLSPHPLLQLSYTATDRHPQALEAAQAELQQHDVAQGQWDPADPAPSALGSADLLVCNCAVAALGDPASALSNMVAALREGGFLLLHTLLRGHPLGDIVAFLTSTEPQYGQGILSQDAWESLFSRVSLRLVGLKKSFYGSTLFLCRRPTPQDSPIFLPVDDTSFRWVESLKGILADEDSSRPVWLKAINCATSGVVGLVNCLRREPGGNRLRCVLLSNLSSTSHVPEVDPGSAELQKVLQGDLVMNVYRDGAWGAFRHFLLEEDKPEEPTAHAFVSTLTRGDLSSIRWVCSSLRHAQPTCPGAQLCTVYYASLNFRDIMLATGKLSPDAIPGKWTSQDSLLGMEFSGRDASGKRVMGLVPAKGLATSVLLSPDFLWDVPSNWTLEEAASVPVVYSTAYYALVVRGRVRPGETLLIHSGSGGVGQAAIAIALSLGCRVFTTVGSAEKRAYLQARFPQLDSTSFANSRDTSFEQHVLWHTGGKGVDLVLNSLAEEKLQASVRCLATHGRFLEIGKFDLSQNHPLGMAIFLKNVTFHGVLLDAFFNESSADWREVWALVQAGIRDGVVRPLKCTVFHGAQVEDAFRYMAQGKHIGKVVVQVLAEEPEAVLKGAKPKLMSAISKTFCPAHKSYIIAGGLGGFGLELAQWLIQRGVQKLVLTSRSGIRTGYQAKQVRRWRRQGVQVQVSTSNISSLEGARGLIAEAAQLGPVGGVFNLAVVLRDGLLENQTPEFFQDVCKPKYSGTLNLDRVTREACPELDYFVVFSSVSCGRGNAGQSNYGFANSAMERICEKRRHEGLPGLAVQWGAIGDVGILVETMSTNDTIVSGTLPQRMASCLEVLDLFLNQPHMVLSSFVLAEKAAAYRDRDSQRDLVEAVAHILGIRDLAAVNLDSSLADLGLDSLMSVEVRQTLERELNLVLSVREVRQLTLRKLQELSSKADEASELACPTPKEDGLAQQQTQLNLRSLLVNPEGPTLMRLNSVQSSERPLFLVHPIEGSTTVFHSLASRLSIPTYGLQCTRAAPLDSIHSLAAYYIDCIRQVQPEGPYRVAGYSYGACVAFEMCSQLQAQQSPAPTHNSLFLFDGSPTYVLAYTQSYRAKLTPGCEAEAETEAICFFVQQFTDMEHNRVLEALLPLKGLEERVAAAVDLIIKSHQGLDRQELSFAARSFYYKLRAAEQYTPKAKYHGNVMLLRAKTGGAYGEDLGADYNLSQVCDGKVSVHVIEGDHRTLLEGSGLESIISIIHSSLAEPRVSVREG

Turning to `C[C@H]1CN(C(=O)c2ccc(-c3nc4ccc(F)cc4o3)cc2)CCN1C(=O)C1(O)CC1` [Compound 1], in data set [1], the “Brain (μM) at 2 h” value was 1.3 µM, the “Plasma (μM) at 2 h” value came to 7.3 µM, the “[Brain]/[Plasma] at 2 h” value is given as 0.18 and the “Brain (μM) at 8 h” value turned out to be 0.40 µM. In addition, in data set [1], the “Plasma (μM) at 8 h” value is 2.1 µM and the “[Brain]/[Plasma] at 8 h” value turned out to be 0.20. Further, the IC50 against FASN enzyme is 100 to 1000 nM.

Regarding `C[C@@H]1CN(C(=O)c2ccc(-c3nc4ccc(F)cc4o3)cc2)C[C@H](C)N1C(=O)C1(O)CC1` [Compound 2], in data set [1], the “Brain (μM) at 2 h” value stood at 0.3 µM, the “Plasma (μM) at 2 h” value came out at 1.4 µM, the “[Brain]/[Plasma] at 2 h” value worked out at 0.20 and the “Brain (μM) at 8 h” value amounted to 0.01 µM. In data set [1], the “Plasma (μM) at 8 h” value stood at 0.06 µM and the “[Brain]/[Plasma] at 8 h” value is 0.21. The compound also displayed an IC50 on FASN enzyme below 100 nM.

`O=C(c1ccc(-c2nc3ccc(F)cc3o2)cc1)N1CCN(C(=O)C2(O)CC2)CC1` [Compound 3]: in data set [1], the “Brain (μM) at 2 h” value was determined as 1.8 µM, the “Plasma (μM) at 2 h” value came to 7.8 µM, the “[Brain]/[Plasma] at 2 h” value is listed as 0.23 and the “Brain (μM) at 8 h” value worked out at 0.89 µM. Moreover, in data set [1], the “Plasma (μM) at 8 h” value was 3.3 µM and the “[Brain]/[Plasma] at 8 h” value stood at 0.27. The compound also had an IC50 at FASN enzyme of 100 to 1000 nM.

Consider `C[C@H]1CN(C(=O)c2ccc(-c3nc4ccc(F)cc4o3)cc2F)CCN1C(=O)C1(O)CC1` [Compound 4], for which, in data set [1], the “Brain (μM) at 2 h” value worked out at 1.6 µM, the “Plasma (μM) at 2 h” value was found to be 10.6 µM, the “[Brain]/[Plasma] at 2 h” value is on record as 0.15 and the “Brain (μM) at 8 h” value was 0.17 µM. In data set [1], the “Plasma (μM) at 8 h” value worked out at 1.1 µM and the “[Brain]/[Plasma] at 8 h” value is reported as 0.16. Moreover, the IC50 against FASN enzyme is below 100 nM.

`O=C(c1ccc(-c2nc3ccc(F)cc3o2)cc1F)N1CCN(C(=O)C2(O)CC2)CC1` [Compound 5]: in data set [1], the “Brain (μM) at 2 h” value turned out to be 1.4 µM, the “Plasma (μM) at 2 h” value was 8.4 µM, the “[Brain]/[Plasma] at 2 h” value was determined as 0.17 and the “Brain (μM) at 8 h” value was found to be 0.62 µM. In data set [1], the “Plasma (μM) at 8 h” value is 3.3 µM and the “[Brain]/[Plasma] at 8 h” value is listed as 0.19. On FASN enzyme, this compound yielded a half-inhibitory concentration (IC50) of 100 to 1000 nM.

As to `O=C(c1ccc(-c2nc3ccc(F)cc3o2)cc1F)N1CCN(C(=O)[C@H]2CCCO2)CC1` [Compound 6], in data set [1], the “Brain (μM) at 2, 8 h (single value)” value was determined as 0.042 µM; the “Plasma (μM) at 2, 8 h (single value)” value amounted to 0.396 µM; the Kp came to 0.105. The 50% inhibitory concentration (IC50) on FASN enzyme was in the range of 100 to 1000 nM.

`C[C@H]1CN(C(=O)c2ccc(-c3nc4ccc(F)cc4o3)cc2F)CCN1C(=O)C1(N)CC1` [Compound 7]: in data set [1], the “Brain (μM) at 2, 8 h (single value)” value came out at 0.013 µM; the “Plasma (μM) at 2, 8 h (single value)” value worked out at 0.238 µM; the Kp was 0.05. The IC50 against FASN enzyme lay within 100 to 1000 nM.

As for `C[C@@H]1CN(C(=O)c2ccc(-c3nc4ccc(F)cc4o3)cc2)C[C@H](C)N1C(=O)C1(N)CC1` [Compound 8], in data set [1], the “Brain (μM) at 2, 8 h (single value)” value is 0.038 µM; the “Plasma (μM) at 2, 8 h (single value)” value was 0.309 µM; the Kp came to 0.12. At FASN enzyme, this compound returned an IC50 of 100 to 1000 nM.

With `Cn1cnc2cc(-c3ccc(C(=O)N4CCN(C(=O)C5(O)CC5)CC4)c(F)c3)ccc21` [Compound 9], in data set [1], the “Brain (μM) at 2 h” value came to 0.03 µM, the “Plasma (μM) at 2 h” value amounted to 5.2 µM, the “[Brain]/[Plasma] at 2 h” value was 0.006 and the “Brain (μM) at 8 h” value is 0.007 µM. In data set [1], the “Plasma (μM) at 8 h” value is 0.6 µM and the “[Brain]/[Plasma] at 8 h” value is 0.012. On FASN enzyme, this compound yielded a half-maximal inhibitory concentration (IC50) below 100 nM.

Take `C[C@H]1CN(C(=O)c2ccc(-c3ccc4c(c3)ncn4C)cc2F)CCN1C(=O)C1(O)CC1` [Compound 10]: in data set [1], the “Brain (μM) at 2 h” value worked out at 0.04 µM, the “Plasma (μM) at 2 h” value stood at 4.4 µM, the “[Brain]/[Plasma] at 2 h” value turned out to be 0.007 and the “Brain (μM) at 8 h” value came out at 0.004 µM. In data set [1], the “Plasma (μM) at 8 h” value is 1.0 µM and the “[Brain]/[Plasma] at 8 h” value was found to be 0.004. Moreover, the IC50 against FASN enzyme is below 100 nM.

Turning to `C[C@H]1CN(C(=O)c2ccc(-c3ccc4c(c3)ncn4C)cc2)CCN1C(=O)C1(O)CC1` [Compound 11], in data set [1], the “Brain (μM) at 2 h” value is 0.02 µM, the “Plasma (μM) at 2 h” value worked out at 4.4 µM, the “[Brain]/[Plasma] at 2 h” value was 0.005 and the “Brain (μM) at 8 h” value amounted to 0.0 µM. In data set [1], the “Plasma (μM) at 8 h” value was 0.6 µM and the “[Brain]/[Plasma] at 8 h” value is recorded as 0.000. Besides, the concentration for half-maximal inhibition (IC50) on FASN enzyme was below 100 nM.

For the compound `Cn1cnc2cc(-c3ccc(C(=O)N4CCN(C(=O)C5(O)CC5)CC4)cc3)ccc21` [Compound 12], in data set [1], the “Brain (μM) at 2 h” value was 0.02 µM, the “Plasma (μM) at 2 h” value amounted to 1.5 µM, the “[Brain]/[Plasma] at 2 h” value was 0.014 and the “Brain (μM) at 8 h” value is 0.0 µM. Also, in data set [1], the “Plasma (μM) at 8 h” value worked out at 0.2 µM and the “[Brain]/[Plasma] at 8 h” value was 0.000. On FASN enzyme, the half-inhibitory concentration (IC50) is 100 to 1000 nM.

`Cn1cc(-c2ccc(-c3ccc(C(=O)N4CCN(C(=O)C5(O)CC5)CC4)cc3)cc2)cn1` [Compound 13]: in data set [1], the “Brain (μM) at 2 h” value amounted to 0.28 µM, the “Plasma (μM) at 2 h” value stood at 5.8 µM, the “[Brain]/[Plasma] at 2 h” value is given as 0.05 and the “Brain (μM) at 8 h” value was found to be 0.12 µM. Further, in data set [1], the “Plasma (μM) at 8 h” value was 3.1 µM and the “[Brain]/[Plasma] at 8 h” value is on record as 0.04. In addition, the 50% inhibitory concentration (IC50) at FASN enzyme is below 100 nM.
